Assay results reported in patent US20230331780A1, “COMPOSITIONS AND METHODS FOR THE TREATMENT OF ALZHEIMER'S DISEASE” (The Trustees of Columbia University in the City of New York, priority 2020, published 2023).

Legend:
[1] = system: exogenous Amyloid-beta 1-42 in mouse brain; assay: exogenous amyloid-beta 1-42 clearance in mouse brain, peptide delivered subcutaneously; format: in vivo; conditions: peptide subcutaneous via pump, A-beta ICV, 28 days, confocal microscopy, FIG. 4
Protocol: Hippocampus areas are shown of the three treated mice (FIG. 3A). Quantification of Amyloid-beta 1-42 in the hippocampus from the three mouse groups are shown with a marked decrease of Amyloid-beta 1-42 in mice that received Peptide #1 but not those that were treated with Peptide #4 (FIG. 3B). […] The fluorescent labelled A-beta (red) was directly administered to the brain via a mini osmotic pump implanted subcutaneously and connected to the brain ventricles through a catheter for continuous drug delivery. The peptide (SEQ ID NO: 1) was delivered subcutaneously via another pump. By the end of the treatment (28 days), brain sections were analyzed by confocal microscope.

[2] = system: exogenous Amyloid-beta 1-42 in mouse brain; assay: exogenous amyloid-beta 1-42 clearance in mouse brain, peptide delivered to brain ventricles by osmotic mini pump; format: in vivo; conditions: ICV via osmotic mini pump, 10 uM solution, approx. 3 ug/kg daily, 28 days, Amyloid-beta 647, confocal microscopy, FIG. 3A/3B
Protocol: Third, by leveraging an in vivo model of microglia-mediated amyloid uptake in the mouse brain, and using osmotic mini pumps implanted subcutaneously to deliver the peptide through a catheter connected to the brain ventricles, it was shown that the inhibitory peptide SEQ ID NO:1 (peptide #1) reduces the amount of exogenous amyloid-beta 1-42 detectable in the brains of animals (FIG. 3A and FIG. 3B). 10 uM peptide solutions, containing SEQ ID NO: 1 (peptide #1) or SEQ ID NO: 2 (peptide #4), were added to osmotic mini pumps to permit daily delivery of approximately 5 ul of dosing solution or 3 ug/kg of peptide. A fluorescently labelled analog of amyloid beta 1-42 (Amyloid-beta 647) was delivered via ICV infusion. Confocal microscopy was later used to quantify signal in hippocampal sections. […] By the end of the treatment (28 days), brain sections were performed and analyzed by confocal microscope.
Hippocampus areas are shown of the three treated mice (FIG. 3A). Quantification of Amyloid-beta 1-42 in the hippocampus from the three mouse groups are shown with a marked decrease of Amyloid-beta 1-42 in mice that received Peptide #1 but not those that were treated with Peptide #4 (FIG. 3B). […] By the end of the treatment (28 days), brain sections were analyzed by confocal microscope.

[3] = system: NeuN positive neurons in Layer 5 of the piriform cortex; assay: neuronal survival in 5×FAD mice given exogenous Amyloid-beta 1-42; format: in vivo, mouse; conditions: 5×FAD mice treated with exogenous Amyloid-beta 1-42; ICV via osmotic mini pump, 28 days; FIG. 6
Description: Fifth, in a modified version of this second in vivo model of Alzheimer's Disease, and using osmotic mini pumps implanted subcutaneously to deliver the peptide through a catheter connected to the brain ventricles, it was shown that the inhibitory peptide SEQ ID NO:1 (peptide #1) reduces neuronal loss in transgenic 5×FAD animals treated with exogenous Amyloid-beta 1-42 (FIG. 6). […] Peptide was directly administered to the brain via a mini osmotic pump implanted subcutaneously and connected to the brain ventricles through a catheter for continuous drug delivery. By the end of the treatment (28 days), brain sections were generated and analyzed by confocal microscope. Quantification of NeuN immunoreactivity in Layer 5 of the piriform cortex, reflective of neuronal number, from the three mouse groups is shown.

[4] = biological target: T1, interaction between CD33 and CD45 (Homo sapiens, UniProt P08575); assay: proximity ligation assay of CD33-CD45 interaction in THP1 cells; format: cell-based; conditions: human myeloid cell line THP1; peptide 0-0.1 mM; FIG. 1
T1 construct: in the human myeloid cell line THP1 using the proximity ligation assay; endogenous in cells; host or cells: THP1 (human myeloid cell line)
T1 sequence (P08575 26-1306): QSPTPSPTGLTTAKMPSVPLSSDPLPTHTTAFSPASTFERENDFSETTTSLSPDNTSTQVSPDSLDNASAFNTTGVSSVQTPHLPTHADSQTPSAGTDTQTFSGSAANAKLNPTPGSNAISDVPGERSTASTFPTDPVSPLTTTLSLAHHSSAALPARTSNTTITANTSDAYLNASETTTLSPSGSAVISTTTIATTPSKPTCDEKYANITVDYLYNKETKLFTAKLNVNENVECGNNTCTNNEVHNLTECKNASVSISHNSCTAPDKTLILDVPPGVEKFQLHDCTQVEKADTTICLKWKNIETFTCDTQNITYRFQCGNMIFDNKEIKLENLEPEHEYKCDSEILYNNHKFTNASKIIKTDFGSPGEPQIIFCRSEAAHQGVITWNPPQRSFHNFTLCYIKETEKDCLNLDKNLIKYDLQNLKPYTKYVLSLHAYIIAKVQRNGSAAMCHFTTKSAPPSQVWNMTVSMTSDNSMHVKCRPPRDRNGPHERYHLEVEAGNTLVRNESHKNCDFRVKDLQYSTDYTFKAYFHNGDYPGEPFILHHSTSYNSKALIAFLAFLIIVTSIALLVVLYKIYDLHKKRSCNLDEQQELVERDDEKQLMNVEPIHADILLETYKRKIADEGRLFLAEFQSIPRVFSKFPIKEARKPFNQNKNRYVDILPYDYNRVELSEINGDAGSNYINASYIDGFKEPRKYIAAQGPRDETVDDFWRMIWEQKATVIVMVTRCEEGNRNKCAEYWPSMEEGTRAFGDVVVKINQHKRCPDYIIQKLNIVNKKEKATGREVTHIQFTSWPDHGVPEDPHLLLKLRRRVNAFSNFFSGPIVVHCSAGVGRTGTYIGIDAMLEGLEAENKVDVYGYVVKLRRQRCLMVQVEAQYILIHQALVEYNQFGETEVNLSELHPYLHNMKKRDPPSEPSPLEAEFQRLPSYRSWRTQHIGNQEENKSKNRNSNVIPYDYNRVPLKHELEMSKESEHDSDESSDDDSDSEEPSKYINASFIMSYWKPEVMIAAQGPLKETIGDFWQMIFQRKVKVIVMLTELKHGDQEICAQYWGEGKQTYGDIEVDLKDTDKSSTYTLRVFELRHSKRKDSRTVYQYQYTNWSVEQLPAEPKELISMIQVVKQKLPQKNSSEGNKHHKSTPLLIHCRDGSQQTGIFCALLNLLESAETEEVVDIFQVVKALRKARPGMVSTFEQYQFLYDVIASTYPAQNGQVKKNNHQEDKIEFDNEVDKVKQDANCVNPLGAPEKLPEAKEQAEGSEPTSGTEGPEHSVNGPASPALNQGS
Description: To test if the binding interaction between CD33 and any of its ligands is involved in AD pathogenesis, a 12-mer peptide (RMESKTEKWMER; SEQ ID NO: 1) was designed based on the structure of the sialic-acid binding domain of siglecs (Sialic acid-binding immunoglobulin-type lectins).

[5] = biological target: T2, CD45 phosphatase (Homo sapiens, UniProt P08575); assay: CD45 phosphatase activity in THP1 cells; format: cell-based; conditions: peptide added to THP1 cells; FIG. 2
T2 construct: endogenous in cells; host or cells: THP1 cells
T2 sequence (P08575 26-1306): T1 sequence (P08575 26-1306)

[6] = system: endogenous Amyloid-beta 1-42 in 5×FAD mice; assay: endogenous amyloid-beta 1-42 in brains of 5×FAD mice; format: in vivo, mouse; conditions: ICV via osmotic mini pump, 28 days, versus vehicle, FIG. 5A/5B
Description: Fourth, by leveraging a second in vivo model of microglia-mediated amyloid uptake in the mouse brain, and using osmotic mini pumps implanted subcutaneously to deliver the peptide through a catheter connected to the brain ventricles, it was shown that the inhibitory peptide SEQ ID NO:1 (peptide #1) reduces the amount of endogenous amyloid-beta 1-42 detectable in the brains of 5×FAD animals (FIG. 5A and FIG. 5B). 5×FAD mice express human APP and PSEN1 transgenes that include five AD-linked mutations. These mice recapitulate many AD-related phenotypes and have a relatively early and aggressive presentation. Amyloid plaques, accompanied by gliosis, are seen in mice as young as two months of age. Neuron loss occurs in multiple brain regions, beginning at about 6 months in the areas with the most pronounced amyloidosis. Mice display a range of cognitive and motor deficits.
Peptide was directly administered to the brain via a mini osmotic pump implanted subcutaneously and connected to the brain ventricles through a catheter for continuous drug delivery. By the end of the treatment (28 days), brain sections were generated and analyzed by confocal microscope. A representative image from an animal in each of the three groups is shown (FIG. 5A). Quantification of E610 immunoreactivity in the hippocampus, reflective Amyloid-beta 1-42 levels, from the three mouse groups is shown.

Sequence	amount of exogenous Amyloid-beta 1-42 in brain parenchyma [1]	amount of exogenous Amyloid-beta 1-42 in hippocampus [2]	neuronal survival (NeuN immunoreactivity in Layer 5 of the piriform cortex) [3]	interaction between CD33 and CD45 (proximity ligation assay) [4]	CD45 phosphatase activity [5]	amount of endogenous Amyloid-beta 1-42 (E610 immunoreactivity in hippocampus) [6]
RMESKTEKWMER [SEQ ID NO: 1]	decreases the amount of exogenous Amyloid-beta 1-42 in brain	decreases the amount of exogenous Amyloid-beta 1-42 in vivo	increased neuronal survival in vivo	reduces the interaction between CD33 and CD45	leads to an increase in CD45 phosphatase activity	decreases the amount of endogenous Amyloid-beta 1-42 in vivo
MESKTEKWMERI [SEQ ID NO: 2, reference compound]	–	–	–	–	does not	–
